Source: article PMC11481179, “Development and Application of Reversible and Irreversible Covalent Probes for Human and Mouse Cathepsin‐K Activity Detection, Revealing Nuclear Activity” (Advanced Science, 2024)

Columns and labels:
CTSB = CTSB (Homo sapiens, UniProt P07858); assay: Recombinant cathepsin inhibition, residual activity labeled by pan cathepsin probe GB123, in-gel fluorescence; format: biochemical; conditions: even at 10 µM
Description: Figure 1 In vitro evaluation of CTSK targeted compounds. a) Labeling of recombinant cathepsins by ABPs. Recombinant cathepsins were treated with increasing concentrations of ABPs for 1 h. Samples were separated by SDS‐PAGE and scanned for fluorescence by a Typhoon scanner at 635/670 nm. All probes show dose‐dependent binding to the CTSK, and have lower affinity to CTSS except GD36, b) CTSK [0.5–280 ng] was labeled with the indicated ABPs [5 µM]. Incubations were performed for 1 h at 37 °C, at pH 5.5. Samples were analyzed as described in (a). c) Recombinant cathepsins B, K, L, and S [0.5 µM] were first treated with the indicated concentrations of the inhibitor GD30 or vehicle for 1 h followed by incubation with a pan cathepsin probe GB123 [1 µM] for 1 h. Samples were analyzed as described in (a). d) Quantitative analysis of CTSK inhibition by GD30 presented in (d), data represent mean values ± standard error, n = 3. e) IC50 plot of GD30 inhibition of CTSK activity.
To further evaluate the probes for their selectivity, we applied a potent and selective covalent inhibitor, Compound 6 (GD30); the inhibitor was generated as a precursor of GD32 and GD36. GD30 was evaluated for its ability to block cathepsin activities by preincubating it with each recombinant enzyme before labeling it by a pan cathepsin ABP, GB123. […]
Recombinant cathepsin inhibition: Recombinant human CTSL, CTSB, CTSK, and CTSS (0.5 µM) were pretreated with different concentrations of inhibitors (GD30, ODN) for 1 h in reaction buffer (50 mM acetate, 4 mM DTT and 5 mM MgCl2, pH 5.5) at 37 °C. GB123, 1 µM, was added, and incubated with samples for 1 h at 37 °C. The reaction was stopped by the addition of sample buffer 4x (40% glycerol, 0.2 M Tris/HCl pH 6.8, 20% beta-mercaptoethanol, 12% SDS, and 0.4 mg/ml bromophenol blue). Samples were then boiled at 95 °C for 2 mins, separated on a 12.5% SDS gel, and scanned for fluorescence by a Typhoon scanner FLA 9500 at excitation/emission wavelengths of 635/670 nm.
Recombinant cathepsin labeling: Recombinant human CTSL, CTSB, CTSK, and CTSS (0.5 µM) were pretreated with different concentrations of probes (GD32, GD36, GD37, or GD42)

[1] = target: T1, active CTSK in intact cells (MG-63, U-2 OS, U-87 MG) (Homo sapiens, UniProt P43235); assay: Labeling of endogenous CTSK in intact cells, fluorescent SDS-PAGE; format: cell-based; conditions: probe 5 µM, fluorescent SDS PAGE method
T1 construct: ability to label endogenous CTSK activity in intact cells; endogenous in cells; host or cells: MG-63, U-2 OS, U-87 MG
T1 sequence (P43235 115-329): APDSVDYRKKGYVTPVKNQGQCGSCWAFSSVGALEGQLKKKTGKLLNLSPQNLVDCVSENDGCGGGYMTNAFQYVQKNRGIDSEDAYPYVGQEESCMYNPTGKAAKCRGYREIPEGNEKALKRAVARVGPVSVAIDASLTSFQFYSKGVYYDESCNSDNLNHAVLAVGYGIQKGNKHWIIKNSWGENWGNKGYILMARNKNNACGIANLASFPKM
Description: Figure 2 Labeling of endogenous CTSK in intact cells. a) U2‐OS cells were treated with DMSO or 5 µM of the indicated inhibitors in culture medium, for 2 h, then with indicated ABPs [5 µM] in a culture medium for indicated times, followed by cell lysis, SDS‐PAGE separation, and fluorescent scanning of the gel at 635/670 nm. An immunoblot of CTSK of the same gel is presented below. b) Intact MG63 cells were treated with GD32 5 µM in the culture media for indicated times, cell lysates were analyzed as in a. CTSK immunoblot is presented, pro and mature CTSK are indicated by arrows. c) MG63 cells and d) U87MG cells were treated with DMSO, or 5 µM of indicated inhibitors in culture medium for 2 h, followed by incubation with 5 µM of indicated probes for 5 h (GD32 and GD42) and 2 h (GB123), cell lysates were analyzed by fluorescent SDS PAGE as in a. […] Cells were incubated with 5 µM GD32 for 24 h in growth media at indicated pHs, prior to the cell lysis, cell lysates were analysed as in a. […] Input (I), immunoprecipitation (IP), and output (O) were separated by a 14% SDS‐PAGE and scanned for fluorescence. […] We further corroborated the band identity by western blot with an anti‐CTSK antibody, where the mature active CTSK is detected at the same location on the gel (Figure 2). page 6: MG63 Ex/Em 635/670 nm b) Figure S5. […] Cell lysates were analyzed as described above. […]

C#CCNC(=O)[C@H](CC(C)C)N[C@@H](c1ccc(-c2ccc(S(=O)(=O)CCNC(=O)OC(C)(C)C)cc2)cc1)C(F)(F)F [GD30]
inhibition of recombinant cathepsin (CTSB): not inhibiting

CC(C)C[C@H](N[C@@H](c1ccc(-c2ccc(S(=O)(=O)CCNC(=O)CCCCC[N+]3=C(/C=C/C=C/C=C4/N(C)c5ccc(S(=O)(=O)O)cc5C4(C)C)C(C)(C)c4cc(S(=O)(=O)O)ccc43)cc2)cc1)C(F)(F)F)C(=O)NC1(C#N)CC1 [GD37]
detection of binding to active CTSK [1]: could not be detected
